Measured values reported in patent US12630527B2, “Broad spectrum anti-cancer compounds” (The Regents of the University of California, priority 2019, dated 2026).

What was measured:
MOLT-4 = assay: High Throughput Screen for growth inhibition, MOLT-4; assay type: cell-based; settings: MOLT-4, Leukemia; 3 days; unit not given
Method: (§1) The High Throughput Screen method is described below. The endpoint readout of this assay is based upon quantitation of ATP as an indicator of viable cells.
(§2) Cell lines that have been preserved in liquid nitrogen are thawed and expanded in growth media (see Table 1-3). Once cells have reached expected doubling times, screening begins. Cells are seeded in growth media in black 384-well tissue culture treated plates at 500-1500 cells per well (as noted in Analyzer). Cells are equilibrated in assay plates via centrifugation and placed at 37° C. 5% CO2 for twenty-four hours before treatment. […] Assay plates are incubated with compound for 3 days and are then analysed using CellTiter-Glo 2.0. All data points are collected via automated processes and are subject to quality control and analysed using Horizon's software.
(§3) Growth Inhibition (GI) is utilized as a measure of cell growth. The GI percentages are calculated by applying the following test and equation: If T<V_0: 100*(1−(T−V_0)/V_0) If T≥V_0: 100*(1−(T−V_0)/(V−V_0)) where T is the signal measure for a test article, V is the untreated/vehicle-treated control measure, and Vo is the untreated/vehicle control measure at time zero (also colloquially referred as T0 plates). This formula is derived from the Growth Inhibition calculation used in the National Cancer Institute's NCI-60 high throughput screen. For the purposes of this report, all data analysis was performed in Growth Inhibition (except where noted).
(§4) A GI of 100% represents complete growth inhibition (cytostasis) and in this case cells treated with compound for 3 days would have the same endpoint reading as TO control cells. A GI of 200% represents complete death (cytotoxicity) of all cells in the culture well and in this case the T reading at 3 days will be lower than the TO control (values near or at zero).
(§5) Horizon also provides Inhibition as a measure of cell viability. Inhibition levels of 0% represent no inhibition of cell growth by treatment. Inhibition of 100% represents no doubling of cell numbers during the treatment window. Both cytostatic and cytotoxic treatments can yield an Inhibition percentage of 100%. Inhibition percentage is calculated as the following: I=1−T/U where T is the treated and U is the untreated/vehicle control.

MV4-11 = assay: High Throughput Screen for growth inhibition (CellTiter-Glo 2.0), MV4-11; assay type: cell-based; settings: MV4-11, Leukemia; 3 days with compound; unit not given
Method: as §1, §2
as §3, with “For the purposes of this report, all data analysis was performed in Growth Inhibition (except where noted).” left out

BICR16 = assay: High Throughput Screen for growth inhibition, BICR16; assay type: cell-based; settings: BICR16, Head and Neck; 3 days; unit not given
Method: as §1, §2, §3, §4
(§6) Horizon also provides Inhibition as a measure of cell viability. Inhibition levels of 0% represent no inhibition of cell growth by treatment. […] Inhibition percentage is calculated as the following: I=1−T/U where T is the treated and U is the untreated/vehicle control.

Panc 04 03 = assay: High Throughput Screen for growth inhibition, Panc 04 03; assay type: cell-based; settings: Panc 04 03, Pancreatic; 3 days; unit not given
Method: as §1, §2
as §3, with “For the purposes of this report, all data analysis was performed in Growth Inhibition (except where noted).” left out

SKOV-3 = assay: High Throughput Screen for growth inhibition, SKOV-3; assay type: cell-based; settings: SKOV-3, Ovarian; 3 days; unit not given
Method: as §1, §2
as §3, with “For the purposes of this report, all data analysis was performed in Growth Inhibition (except where noted).” left out

AGS = assay: High Throughput Screen for growth inhibition, AGS; assay type: cell-based; settings: Gastric, 3 days, unit not given
Method: as §1, §2, §3, §4, §5

SW480 = assay: High Throughput Screen for growth inhibition, SW480; assay type: cell-based; settings: SW480, Colon; 3 days; unit not given
Method: as §1, §2
as §3, with “For the purposes of this report, all data analysis was performed in Growth Inhibition (except where noted).” left out

Kasumi-1 = assay: High Throughput Screen for growth inhibition, Kasumi-1; assay type: cell-based; settings: Kasumi-1, Leukemia; 3 days; unit not given
Method: as §1, §2
as §3, with “For the purposes of this report, all data analysis was performed in Growth Inhibition (except where noted).” left out

PECAPJ15 = assay: High Throughput Screen for growth inhibition, PECAPJ15; assay type: cell-based; settings: PECAPJ15, Head and Neck; 3 days; unit not given
Method: as §1, §2
as §3, with “For the purposes of this report, all data analysis was performed in Growth Inhibition (except where noted).” left out

MC-F7 = assay: High Throughput Screen for growth inhibition, MC-F7 (MCF7); assay type: cell-based; settings: MC-F7, Breast (luminal); 3 days; unit not given
Method: as §1, §2
as §3, with “For the purposes of this report, all data analysis was performed in Growth Inhibition (except where noted).” left out

HCT-116 = assay: High Throughput Screen for growth inhibition, HCT-116; assay type: cell-based; settings: HCT-116, Colon; 3 days; unit not given
Method: as §1, §2
as §3, with “For the purposes of this report, all data analysis was performed in Growth Inhibition (except where noted).” left out

LUDLU-1 = assay: High Throughput Screen for growth inhibition, LUDLU-1; assay type: cell-based; settings: LUDLU-1, LUSC; 3 days; unit not given
Method: as §1, §2, §3, §4, §6

Ishikawa = assay: High Throughput Screen for growth inhibition, Ishikawa; assay type: cell-based; settings: Endometrial (uterine), 3 days, unit not given
Method: as §1, §2
as §3, with “For the purposes of this report, all data analysis was performed in Growth Inhibition (except where noted).” left out

NCI-H520 = assay: High Throughput Screen for growth inhibition, NCI-H520; assay type: cell-based; settings: NCI-H520, LUSC; 3 days; unit not given
Method: as §1, §2
as §3, with “For the purposes of this report, all data analysis was performed in Growth Inhibition (except where noted).” left out

A549 = assay: High Throughput Screen for growth inhibition, A549; assay type: cell-based; settings: A549, lung adenocarcinoma; 3 days; unit not given
Method: as §1, §2
as §3, with “For the purposes of this report, all data analysis was performed in Growth Inhibition (except where noted).” left out

SUM159PT = assay: High Throughput Screen for growth inhibition, SUM159PT; assay type: cell-based; settings: Breast, 3 days, unit not given
Method: as §1, §2
as §3, with “For the purposes of this report, all data analysis was performed in Growth Inhibition (except where noted).” left out

HEC-50B = assay: High Throughput Screen for growth inhibition, HEC-50B; assay type: cell-based; settings: Endometrial (uterine), 3 days, unit not given
Method: as §1, §2
as §3, with “For the purposes of this report, all data analysis was performed in Growth Inhibition (except where noted).” left out

Pancreatic = settings: read-out: EC50 of chemo SOC; cited from earlier work

SMILES | Growth Inhibition (GI) Values (MOLT-4) | Growth Inhibition (GI) Values (MV4-11) | Growth Inhibition (GI) Values (BICR16) | Growth Inhibition (GI) Values (Panc 04 03) | Growth Inhibition (GI) Values (SKOV-3) | Growth Inhibition (GI) Values (AGS) | Growth Inhibition (GI) Values (SW480) | Growth Inhibition (GI) Values (Kasumi-1) | Growth Inhibition (GI) Values (PECAPJ15) | Growth Inhibition (GI) Values (MC-F7) | Growth Inhibition (GI) Values (HCT-116) | Growth Inhibition (GI) Values (LUDLU-1) | Growth Inhibition (GI) Values (Ishikawa) | Growth Inhibition (GI) Values (NCI-H520) | Growth Inhibition (GI) Values (A549) | Growth Inhibition (GI) Values (SUM159PT) | Growth Inhibition (GI) Values (HEC-50B) | EC50 (Pancreatic) [nM]
CN(Cc1ccc(C(F)(F)F)cc1)c1ccc(CNC2CC2)cn1 [TR-YTH-10] | 14.304 | 23.158 | 12.966 | 28.024 | 25.341 | 21.842 | 25.275 | 10.784 | 44.646 | 24.642 | 21.453 | 20.311 | 22.531 | 24.266 | 24.437 | 56.597 | 37.217 | 
Nc1ccn([C@@H]2O[C@H](CO)[C@@H](O)C2(F)F)c(=O)n1 [gemcitabine] |  |  |  |  |  |  |  |  |  |  |  |  |  |  |  |  |  | < 1000
